# Source: patent US20180016593A1, “HERBICIDE-RESISTANT SUNFLOWER PLANTS, POLYNUCLEOTIDES ENCODING HERBICIDE-RESISTANT ACETOHYDROXYACID SYNTHASE LARGE SUBUNIT PROTEINS, AND METHODS OF USE” (priority 2005, published 2018)
# Experiments:
# Test in all cases: Greenhouse whole-plant imazapir dose response (Example 8)
# Assay type in all cases: in vivo, Helianthus annuus
# [1] = tested on: sunflower IR79 (Restorer Line, A205V); settings: 14 DAT
# Method: (§1) A greenhouse study was conducted to quantify and contrast the imazapir sensivity of the mutants A122T and A205V in different genetic backgrounds at the whole plant level in sunflower. Seeds of the different sunflower lines that were used in this study were obtained under field conditions.
# (§2) Seeds were sown in Petri dishes and, after germination, plantlets were transplanted to pots of 10 cm of diameter in a potting media consisting of equal parts of vermiculite, soil and sand. Plants were grown in a greenhouse under natural light conditions supplemented with 400 W sodium halide lamps to provide a 16 hrs daylength. Day/night temperatures were 25 and 20° C., respectively. At the V2 stage 10 plants of each genotype were randomly assigned to each treatment consisting of […] imazapir doses (0, 40, 80, 160, 240, 320, 400 and 480 g ai/ha), and a zero-time biomass determination. Experiment was arranged as a randomized block design with a full factorial (sunflower line×treatment) arrangement of treatments and 10 replications.
# (§3) On the day of herbicide application ten plants of each genotype were cut at the cotyledonal node and dried at 60° C. for 48 hrs zero-time for dried weight determination.
# (§4) Height was determined as the distance between the cotyledonal node and the apex of each plant. For root biomass determination, each plant was taken from the pot and the potting media was washed out from the roots. Above ground biomass data from each line were converted to biomass accumulation after application by subtracting the appropriate average zero-time biomass from each sample. Dry biomass data were converted to percentages of the untreated control plants within each line to allow direct comparisons between groups. […]
# [2] = tested on: sunflower GM1606 (Manteiner Line, A122T); settings: 14 DAT
# Method: as §1, §2, §3, §4
# [3] = tested on: sunflower GM40 (Manteiner Line, A122T); settings: 14 DAT
# Method: as §1, §2, §3, §4
# [4] = tested on: sunflower GIM 5-6 (Restorer Line, A122T); settings: GIM5-6, 14 DAT
# Method: as §1, §2, §3, §4
smiles,measurement,setting,value
CC(C)C1(C)N=C(c2ncccc2C(=O)O)NC1=O (stereo not drawn) [imazapyr],biomass accumulation (above ground dry weight),[1]; 0.5x (40 g ai/ha),94.4 % of untreated plots
same,plant height,[1]; 0.5x (40 g ai/ha),92.8 % of untreated plots
same,root dry weight,[1]; 0.5x (40 g ai/ha),98.6 % of untreated plots
same,biomass accumulation (above ground dry weight),[1]; 1x (80 g ai/ha),74.0 % of untreated plots
same,plant height,[1]; 1x (80 g ai/ha),80.9 % of untreated plots
same,root dry weight,[1]; 1x (80 g ai/ha),53.4 % of untreated plots
same,biomass accumulation (above ground dry weight),[1]; 2x (160 g ai/ha),67.7 % of untreated plots
same,plant height,[1]; 2x (160 g ai/ha),74.9 % of untreated plots
same,root dry weight,[1]; 2x (160 g ai/ha),42.5 % of untreated plots
same,biomass accumulation (above ground dry weight),[1]; 3x (240 g ai/ha),49.1 % of untreated plots
same,plant height,[1]; 3x (240 g ai/ha),55.7 % of untreated plots
same,root dry weight,[1]; 3x (240 g ai/ha),38.4 % of untreated plots
same,biomass accumulation (above ground dry weight),[1]; 4x (320 g ai/ha),44.5 % of untreated plots
same,plant height,[1]; 4x (320 g ai/ha),52.8 % of untreated plots
same,root dry weight,[1]; 4x (320 g ai/ha),31.5 % of untreated plots
same,biomass accumulation (above ground dry weight),[1]; 5x (400 g ai/ha),40.1 % of untreated plots
same,plant height,[1]; 5x (400 g ai/ha),41.7 % of untreated plots
same,root dry weight,[1]; 5x (400 g ai/ha),23.3 % of untreated plots
same,biomass accumulation (above ground dry weight),[1]; 6x (480 g ai/ha),35.3 % of untreated plots
same,plant height,[1]; 6x (480 g ai/ha),33.2 % of untreated plots
same,root dry weight,[1]; 6x (480 g ai/ha),21.9 % of untreated plots
same,biomass accumulation (above ground dry weight),[2]; 0.5x (40 g ai/ha),100.0 % of untreated plots
same,plant height,[2]; 0.5x (40 g ai/ha),97.0 % of untreated plots
same,root dry weight,[2]; 0.5x (40 g ai/ha),100 % of untreated plots
same,biomass accumulation (above ground dry weight),[2]; 1x (80 g ai/ha),100.0 % of untreated plots
same,plant height,[2]; 1x (80 g ai/ha),95.7 % of untreated plots
same,root dry weight,[2]; 1x (80 g ai/ha),100.0 % of untreated plots
same,biomass accumulation (above ground dry weight),[2]; 2x (160 g ai/ha),97.6 % of untreated plots
same,plant height,[2]; 2x (160 g ai/ha),95.2 % of untreated plots
same,root dry weight,[2]; 2x (160 g ai/ha),92.5 % of untreated plots
same,biomass accumulation (above ground dry weight),[2]; 3x (240 g ai/ha),95.4 % of untreated plots
same,plant height,[2]; 3x (240 g ai/ha),95.7 % of untreated plots
same,root dry weight,[2]; 3x (240 g ai/ha),85.2 % of untreated plots
same,biomass accumulation (above ground dry weight),[2]; 4x (320 g ai/ha),90.5 % of untreated plots
same,plant height,[2]; 4x (320 g ai/ha),94.1 % of untreated plots
same,root dry weight,[2]; 4x (320 g ai/ha),87.0 % of untreated plots
same,biomass accumulation (above ground dry weight),[2]; 5x (400 g ai/ha),85.3 % of untreated plots
same,plant height,[2]; 5x (400 g ai/ha),94.3 % of untreated plots
same,root dry weight,[2]; 5x (400 g ai/ha),88.1 % of untreated plots
same,biomass accumulation (above ground dry weight),[2]; 6x (480 g ai/ha),83.0 % of untreated plots
same,plant height,[2]; 6x (480 g ai/ha),91.4 % of untreated plots
same,root dry weight,[2]; 6x (480 g ai/ha),69.5 % of untreated plots
same,biomass accumulation (above ground dry weight),[3]; 0.5x (40 g ai/ha),96.5 % of untreated plots
same,plant height,[3]; 0.5x (40 g ai/ha),99.6 % of untreated plots
same,root dry weight,[3]; 0.5x (40 g ai/ha),100 % of untreated plots
same,biomass accumulation (above ground dry weight),[3]; 1x (80 g ai/ha),94.1 % of untreated plots
same,plant height,[3]; 1x (80 g ai/ha),97.4 % of untreated plots
same,root dry weight,[3]; 1x (80 g ai/ha),100 % of untreated plots
same,biomass accumulation (above ground dry weight),[3]; 2x (160 g ai/ha),97.6 % of untreated plots
same,plant height,[3]; 2x (160 g ai/ha),95.2 % of untreated plots
same,root dry weight,[3]; 2x (160 g ai/ha),100 % of untreated plots
same,biomass accumulation (above ground dry weight),[3]; 3x (240 g ai/ha),95.8 % of untreated plots
same,plant height,[3]; 3x (240 g ai/ha),93.0 % of untreated plots
same,root dry weight,[3]; 3x (240 g ai/ha),92.2 % of untreated plots
same,biomass accumulation (above ground dry weight),[3]; 4x (320 g ai/ha),88.3 % of untreated plots
same,plant height,[3]; 4x (320 g ai/ha),93.0 % of untreated plots
same,root dry weight,[3]; 4x (320 g ai/ha),98.1 % of untreated plots
same,biomass accumulation (above ground dry weight),[3]; 5x (400 g ai/ha),85.6 % of untreated plots
same,plant height,[3]; 5x (400 g ai/ha),93.9 % of untreated plots
same,root dry weight,[3]; 5x (400 g ai/ha),84.2 % of untreated plots
same,biomass accumulation (above ground dry weight),[3]; 6x (480 g ai/ha),76.8 % of untreated plots
same,plant height,[3]; 6x (480 g ai/ha),84.3 % of untreated plots
same,root dry weight,[3]; 6x (480 g ai/ha),74.3 % of untreated plots
same,biomass accumulation (above ground dry weight),[4]; 0.5x (40 g ai/ha),100.0 % of untreated plots
same,plant height,[4]; 0.5x (40 g ai/ha),100.0 % of untreated plots
same,root dry weight,[4]; 0.5x (40 g ai/ha),100 % of untreated plots
same,biomass accumulation (above ground dry weight),[4]; 1x (80 g ai/ha),96.4 % of untreated plots
same,plant height,[4]; 1x (80 g ai/ha),100.0 % of untreated plots
same,root dry weight,[4]; 1x (80 g ai/ha),88.0 % of untreated plots
same,biomass accumulation (above ground dry weight),[4]; 2x (160 g ai/ha),97.7 % of untreated plots
same,plant height,[4]; 2x (160 g ai/ha),99.1 % of untreated plots
same,root dry weight,[4]; 2x (160 g ai/ha),90.0 % of untreated plots
same,biomass accumulation (above ground dry weight),[4]; 3x (240 g ai/ha),95.8 % of untreated plots
same,plant height,[4]; 3x (240 g ai/ha),98.1 % of untreated plots
same,root dry weight,[4]; 3x (240 g ai/ha),98.0 % of untreated plots
same,biomass accumulation (above ground dry weight),[4]; 4x (320 g ai/ha),90.8 % of untreated plots
same,plant height,[4]; 4x (320 g ai/ha),91.0 % of untreated plots
same,root dry weight,[4]; 4x (320 g ai/ha),80.0 % of untreated plots
same,biomass accumulation (above ground dry weight),[4]; 5x (400 g ai/ha),81.9 % of untreated plots
same,plant height,[4]; 5x (400 g ai/ha),94.3 % of untreated plots
same,root dry weight,[4]; 5x (400 g ai/ha),80.0 % of untreated plots
same,biomass accumulation (above ground dry weight),[4]; 6x (480 g ai/ha),78.0 % of untreated plots
same,plant height,[4]; 6x (480 g ai/ha),85.8 % of untreated plots
same,root dry weight,[4]; 6x (480 g ai/ha),65.8 % of untreated plots
